Calls of active or inactive are those of the source. No cut-off for these calls is given here.
Tests used:
MV4-11 = assay: Downregulation of c-Myc mRNA level in human MV4-11 cells at 5 to 10 uM incubated for 48 hrs by qRT-PCR analysis; format: functional, cell-based; conditions: dose 5-10 µM
MOLM-13 = assay: Induction of apoptosis in human MOLM-13 cells assessed as necrotic cells at 10 uM incubated for 48 hrs by Annexin V-FITC/PI staining based flow cytometry (reference value: 1.00 %); format: functional
RNA demethylase ALKBH5 = RNA demethylase ALKBH5 (Homo sapiens, UniProt Q6P6C2); assay: Inhibition of ALKBH5 in human MOLM-13 cells assessed as increase in m6A RNA level by dot blot assay; format: cell-based; conditions: dose <= 20.0 µM
Sequence of RNA demethylase ALKBH5 (Q6P6C2 2-394 limits assumed): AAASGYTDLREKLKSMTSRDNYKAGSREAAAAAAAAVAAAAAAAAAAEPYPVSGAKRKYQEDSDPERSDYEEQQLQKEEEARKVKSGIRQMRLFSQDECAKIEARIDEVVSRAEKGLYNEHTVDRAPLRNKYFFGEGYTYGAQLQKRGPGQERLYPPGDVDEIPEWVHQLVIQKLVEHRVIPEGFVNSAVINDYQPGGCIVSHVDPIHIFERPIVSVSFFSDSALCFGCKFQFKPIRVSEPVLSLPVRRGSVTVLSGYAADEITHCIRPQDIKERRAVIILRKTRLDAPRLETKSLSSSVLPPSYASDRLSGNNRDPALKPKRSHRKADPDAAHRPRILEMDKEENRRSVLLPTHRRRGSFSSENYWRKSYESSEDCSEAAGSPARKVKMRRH

[1] = Metabolic stability in human liver microsomes assessed as clearance measured upto 240 mins by LC-MS/MS analysis; format: ADME, Microsome; conditions: read-out: CLH

O=C(OCc1ccc(C(F)(F)F)cc1)c1ccc(-c2cc3ncc(C(=O)c4c(O)ccc([N+](=O)[O-])c4O)cn3n2)cc1
Activity (MV4-11): Active
Activity (MOLM-13): 4.14%
inhibition (RNA demethylase ALKBH5): Dose-Dependent Effect
microsomal CLint [1]: 3.2 µL/min/mg

Source: ChEMBL document CHEMBL5375956, “Discovery of Pyrazolo[1,5-a]pyrimidine Derivative as a Novel and Selective ALKBH5 Inhibitor for the Treatment of AML” (J Med Chem, 2023)
